The target in experiment [1] is T1, Aurora kinase A (Homo sapiens) (UniProt O14965).
T1 sequence (whole entry): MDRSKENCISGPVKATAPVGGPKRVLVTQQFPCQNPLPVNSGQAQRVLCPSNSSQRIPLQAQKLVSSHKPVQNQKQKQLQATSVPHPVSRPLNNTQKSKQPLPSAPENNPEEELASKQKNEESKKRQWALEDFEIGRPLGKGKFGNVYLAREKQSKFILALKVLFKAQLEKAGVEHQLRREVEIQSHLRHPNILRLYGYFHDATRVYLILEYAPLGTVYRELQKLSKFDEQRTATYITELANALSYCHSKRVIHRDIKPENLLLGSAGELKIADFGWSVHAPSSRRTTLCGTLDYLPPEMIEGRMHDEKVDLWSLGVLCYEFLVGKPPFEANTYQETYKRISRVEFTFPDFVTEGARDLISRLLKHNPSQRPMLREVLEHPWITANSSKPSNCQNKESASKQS
Briefly: Inhibition of Aurora A at 10 uM.

In experiment [2] the target is T2, Aurora kinase A (Homo sapiens, UniProt O14965).
T2 sequence (O14965 whole entry): T1 sequence (whole entry)

The test system of experiment [3] is HCT-116. The experiment can be described thus: Cytotoxicity against human HCT116 cells by MTS assay. It is filed as functional, cell-based. (Tetrazolium assays rely on reduction of a dye to a coloured formazan, in cell work by metabolically active cells.)
Experiment [4] concerns the target T3, Epidermal growth factor receptor (Homo sapiens, UniProt P00533).
Description: Inhibition of GST-tagged EGFR expressed in Escherichia coli
Experiment [5] addresses Epidermal growth factor receptor (Homo sapiens, UniProt P00533, L858R/T790M).
Experiment [6] concerns the target T3, Epidermal growth factor receptor. The following applies: 20 uM.
Description: Inhibition of GST-tagged EGFR expressed in Escherichia coli at 20 uM
Experiment [7] can be described thus: cells. The following applies: Homo sapiens, HCC827, 96 h.
Description: Antiproliferative activity against human HCC827 cells after 96 hrs by MTS assay

T3 sequence (P00533 whole entry): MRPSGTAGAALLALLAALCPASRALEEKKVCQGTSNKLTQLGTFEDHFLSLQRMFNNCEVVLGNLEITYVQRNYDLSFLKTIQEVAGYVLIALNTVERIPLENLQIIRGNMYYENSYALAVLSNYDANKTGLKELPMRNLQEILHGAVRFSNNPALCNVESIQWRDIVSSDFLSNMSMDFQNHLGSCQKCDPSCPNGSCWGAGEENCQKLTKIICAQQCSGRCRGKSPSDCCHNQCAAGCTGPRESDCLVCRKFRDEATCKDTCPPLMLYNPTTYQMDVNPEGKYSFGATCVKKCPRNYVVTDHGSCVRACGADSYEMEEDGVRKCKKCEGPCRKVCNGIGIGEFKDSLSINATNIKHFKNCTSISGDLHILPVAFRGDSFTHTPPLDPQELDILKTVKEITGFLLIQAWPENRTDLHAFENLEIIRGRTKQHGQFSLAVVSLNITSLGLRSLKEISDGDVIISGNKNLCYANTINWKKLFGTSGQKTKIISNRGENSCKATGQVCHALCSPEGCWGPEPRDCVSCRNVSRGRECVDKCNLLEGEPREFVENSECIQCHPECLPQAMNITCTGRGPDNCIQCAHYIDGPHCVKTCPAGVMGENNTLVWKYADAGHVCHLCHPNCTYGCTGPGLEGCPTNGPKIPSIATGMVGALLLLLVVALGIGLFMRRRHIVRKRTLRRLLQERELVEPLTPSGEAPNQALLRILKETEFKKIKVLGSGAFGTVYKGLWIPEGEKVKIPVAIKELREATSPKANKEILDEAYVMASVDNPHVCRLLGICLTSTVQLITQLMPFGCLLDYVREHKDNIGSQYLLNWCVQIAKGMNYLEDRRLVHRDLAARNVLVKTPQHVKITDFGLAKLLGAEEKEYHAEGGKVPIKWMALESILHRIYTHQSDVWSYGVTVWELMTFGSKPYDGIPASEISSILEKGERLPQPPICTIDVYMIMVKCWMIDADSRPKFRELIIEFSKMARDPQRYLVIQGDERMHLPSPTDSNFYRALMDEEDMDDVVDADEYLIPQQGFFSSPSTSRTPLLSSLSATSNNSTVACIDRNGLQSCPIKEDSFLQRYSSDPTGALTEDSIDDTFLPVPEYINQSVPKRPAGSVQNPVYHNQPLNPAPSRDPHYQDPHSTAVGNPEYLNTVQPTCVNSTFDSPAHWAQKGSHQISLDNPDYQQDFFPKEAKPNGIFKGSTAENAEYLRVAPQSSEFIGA
Sequence of Epidermal growth factor receptor (Homo sapiens, UniProt P00533, L858R/T790M) (P00533 25-1210 T790M/L858R limits assumed): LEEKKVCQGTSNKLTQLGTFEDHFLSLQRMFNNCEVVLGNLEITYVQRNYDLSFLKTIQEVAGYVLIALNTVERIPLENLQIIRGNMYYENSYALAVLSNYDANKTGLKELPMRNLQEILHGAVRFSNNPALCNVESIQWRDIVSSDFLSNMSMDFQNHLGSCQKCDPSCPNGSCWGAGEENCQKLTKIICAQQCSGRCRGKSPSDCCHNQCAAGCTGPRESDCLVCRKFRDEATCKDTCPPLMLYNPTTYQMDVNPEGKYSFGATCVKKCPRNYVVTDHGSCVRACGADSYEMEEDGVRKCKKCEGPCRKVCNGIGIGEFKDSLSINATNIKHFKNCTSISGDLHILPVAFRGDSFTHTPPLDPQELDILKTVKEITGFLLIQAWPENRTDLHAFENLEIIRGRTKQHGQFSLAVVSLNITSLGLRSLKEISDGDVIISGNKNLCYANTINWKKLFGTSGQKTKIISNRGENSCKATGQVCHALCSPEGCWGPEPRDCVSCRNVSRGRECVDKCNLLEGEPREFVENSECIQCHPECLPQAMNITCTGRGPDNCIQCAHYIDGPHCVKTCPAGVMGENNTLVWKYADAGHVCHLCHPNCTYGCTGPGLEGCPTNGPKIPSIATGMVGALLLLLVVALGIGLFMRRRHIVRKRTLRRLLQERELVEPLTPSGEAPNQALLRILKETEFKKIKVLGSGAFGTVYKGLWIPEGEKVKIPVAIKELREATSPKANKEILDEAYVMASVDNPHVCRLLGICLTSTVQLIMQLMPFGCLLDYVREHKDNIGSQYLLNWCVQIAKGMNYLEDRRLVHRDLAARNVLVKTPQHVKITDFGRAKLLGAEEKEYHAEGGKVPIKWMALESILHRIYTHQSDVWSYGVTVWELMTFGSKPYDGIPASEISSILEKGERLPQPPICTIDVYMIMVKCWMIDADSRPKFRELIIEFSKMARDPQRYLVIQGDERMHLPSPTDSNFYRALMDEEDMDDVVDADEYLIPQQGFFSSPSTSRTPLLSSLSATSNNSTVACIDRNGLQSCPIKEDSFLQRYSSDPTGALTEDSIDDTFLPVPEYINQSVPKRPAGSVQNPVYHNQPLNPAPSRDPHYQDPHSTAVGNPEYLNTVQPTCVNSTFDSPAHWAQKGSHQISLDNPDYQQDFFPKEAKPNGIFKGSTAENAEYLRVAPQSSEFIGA

The term inhibition denotes the relative decrease from the control value, in per cent. Read a low inhibition as a response near the control. Usually IC50 stands for the concentration that gives 50% inhibition. Compound `OC1CCN(c2ncnc3oc(-c4ccccc4)c(-c4ccccc4)c23)CC1` yielded an inhibition in experiment [1] of 85.8%. For the same compound, the IC50 in experiment [2] came out at 807 nM. `O=S(=O)(Nc1ccc(CCNc2ncnc3oc(-c4ccccc4)c(-c4ccccc4)c23)cc1)c1ccccc1`: the IC50 is greater than 10000 nM in experiment [3] and 5830 nM in experiment [2].

Consider `OC[C@@H](Nc1ncnc2oc(-c3ccccc3)c(-c3ccccc3)c12)c1ccccc1`, for which the half-inhibitory concentration (IC50) in experiment [4] was 223 nM; in experiment [5], greater than 10000 nM; in experiment [7], 518 nM. Besides, the inhibition in experiment [6] is greater than 80%.

As to `Oc1ccc(CCNc2ncnc3oc(-c4ccccc4)c(-c4ccccc4)c23)cc1`, in experiment [2], the IC50 came out at 640 nM. With `C[C@@H](CO)Nc1ncnc2oc(-c3ccccc3)c(-c3ccccc3)c12`, in experiment [2], inhibition was half-maximal at 792 nM (IC50). Consider `O=C(Nc1ccc(CCNc2ncnc3oc(-c4ccccc4)c(-c4ccccc4)c23)cc1)c1ccccc1`, for which the figures for the IC50 in experiment [3] and in experiment [2] were greater than 10000 nM and 304 nM, respectively. Compound `C[C@@H](O)CNc1ncnc2oc(-c3ccccc3)c(-c3ccccc3)c12` registered an IC50 in experiment [2] of 973 nM. Regarding `C=CC(=O)Nc1ccc(-c2c(-c3ccccc3)oc3ncnc(N[C@H](CO)c4ccccc4)c23)cc1`, the values for the IC50 in experiment [4], in experiment [5] and in experiment [7] were 82 nM, greater than 10000 nM and 394 nM, respectively.

In the case of `CCOC(=O)CCNc1ncnc2oc(-c3ccccc3)c(-c3ccccc3)c12`, the results for the IC50 in experiment [3] and in experiment [2] were greater than 10000 nM and 796 nM, respectively.

`CC1CN(c2ncnc3oc(-c4ccccc4)c(-c4ccccc4)c23)CC(C)N1` (configuration not stated): in experiment [2], half-maximal inhibition (IC50) was put at 334 nM. In the case of `COC1C=CC(CNc2ncnc3oc(-c4ccccc4)c(-c4ccccc4)c23)(OC)O1` (configuration not stated), in experiment [2], half-maximal inhibition (IC50) was put at 827 nM. For the compound `Nc1ccc(CCNc2ncnc3oc(-c4ccccc4)c(-c4ccccc4)c23)cc1`, the IC50 is greater than 10000 nM in experiment [3] and 640 nM in experiment [2]. Compound `OCCNc1ncnc2oc(-c3ccccc3)c(-c3ccccc3)c12` returned an inhibition in experiment [1] of 98.2%. In experiment [2], this compound came in with an IC50 of 309 nM. In turn, `c1ccc(-c2oc3ncnc(NCCc4ccccn4)c3c2-c2ccccc2)cc1` yielded an IC50 in experiment [2] of 535 nM. On to `O=C(CCNc1ncnc2oc(-c3ccccc3)c(-c3ccccc3)c12)Nc1ccccc1`, for which the IC50 in experiment [3] and in experiment [2] was greater than 10000 nM throughout. `c1ccc(-c2oc3ncnc(NCCc4cnc[nH]4)c3c2-c2ccccc2)cc1` yielded an IC50 in experiment [2] of 296 nM. In other words, the sub-micromolar range.

In the case of `Cc1cc(Nc2cc(N3CCN(C)CC3)nc(Sc3ccc(NC(=O)C4CC4)cc3)n2)n[nH]1` [TOZASERTIB], inhibition in experiment [3] was half-maximal at 120 nM (IC50). On to `c1ccc(-c2oc3ncnc(NCCN4CCOCC4)c3c2-c2ccccc2)cc1`, for which the inhibition in experiment [1] was 81.7%. This compound also yielded an IC50 in experiment [2] of 1770 nM. Compound `c1ccc(-c2oc3ncnc(NCCc4c[nH]cn4)c3c2-c2ccccc2)cc1` displayed an inhibition in experiment [1] of 91.4%. The compound `c1ccc(-c2oc3ncnc(NCCCn4ccnc4)c3c2-c2ccccc2)cc1` displayed an inhibition in experiment [1] of 73.8%. Moreover, in experiment [2], the IC50 amounted to 3310 nM. The compound `Nc1ccc(CNc2ncnc3oc(-c4ccccc4)c(-c4ccccc4)c23)cc1` returned an IC50 in experiment [2] of 945 nM. Same read-out and setting: then `OCCOCCNc1ncnc2oc(-c3ccccc3)c(-c3ccccc3)c12`, with 760 nM. In experiment [3], `O=C(Nc1ccccc1)Nc1ccc(CCNc2ncnc3oc(-c4ccccc4)c(-c4ccccc4)c23)cc1` had an IC50 of 400 nM.

Values taken from ChEMBL document CHEMBL1177739, “Fast-forwarding hit to lead: aurora and epidermal growth factor receptor kinase inhibitor lead identification” (J Med Chem, 2010).
